Measurements as given in patent US5059597A, “7-(4-oxa or 4-thia-2,7-diazabicyclo[3.3.0]oct-2-en-3-yl)-3-quinolone-and-naphthyrido ne-carboxylic acid derivatives as antibacterial agents and feed additives” (Bayer Aktiengesellschaft, priority 1988, dated 1991).
Converted amounts (≈) assume the structure as drawn.

Tests used:
[1] = tested on: Enterococcus faecalis 27101; experiment: MIC, agar dilution test (Denley multipoint inoculator; Iso-sensitest agar); type: cell-based; details: Enterococcus faecalis 27101; 37° C., about 20 hours, about 10^4 colony-forming particles; read-out: MIC values
Protocol: (§1) The minimum inhibitory concentrations (MIC) were determined by the series dilution method on Iso-Sensitest agar (Oxoid). For each test substance, a series of agar plates which contained concentrations of the active compound which decreased by a dilution factor of two each time was prepared. The agar plates were inoculated with a multipoint inoculator (Denley). Overnight cultures of the pathogens which had first been diluted so that each inoculation point contained about 10^4 colony-forming particles were used for the inoculation. The inoculated agar plates were incubated at 37° C. and the germ growth was read off after about 20 hours. The MIC value (μg/ml) indicates the lowest active compound concentration at which no germ growth was to be detected with the naked eye.
(§2) The MIC values of some of the compounds according to the invention are shown in comparison with ciprofloxacin in the following table.
(§3) MIC values (mg/l) determined by the agar dilution
(§4) test (Denley multipoint inoculator; Iso-sensitest agar)

[2] = tested on: Enterococcus faecalis 9790; experiment: as above; type: cell-based; details: Enterococcus faecalis 9790; 37° C., about 20 hours, about 10^4 colony-forming particles; read-out: MIC values
Protocol: as §1, §2, §3, §4

[3] = tested on: Escherichia coli Neumann; experiment: as above; type: cell-based; details: 37° C., about 20 hours, about 10^4 colony-forming particles
Protocol: as §1, §2, §3, §4

[4] = tested on: Morganella morganii 932; experiment: as above; type: cell-based; details: 37° C., about 20 hours, about 10^4 colony-forming particles
Protocol: as §1, §2, §3, §4

[5] = tested on: Proleus mirabilis 8223; experiment: as above; type: cell-based; details: 37° C., about 20 hours, about 10^4 colony-forming particles
Protocol: as §1, §2, §3, §4

[6] = tested on: Proleus vulgaris 1017; experiment: as above; type: cell-based; details: 37° C., about 20 hours, about 10^4 colony-forming particles
Protocol: as §1, §2, §3, §4

[7] = tested on: Providencia stuartei 12052; experiment: as above; type: cell-based; details: 37° C., about 20 hours, about 10^4 colony-forming particles
Protocol: as §1, §2, §3, §4

[8] = tested on: Staphylococcus aureus 133; experiment: as above; type: cell-based; details: Staphylococcus aureus 133; 37° C., about 20 hours, about 10^4 colony-forming particles; read-out: MIC values
Protocol: as §1, §2, §3, §4

[9] = tested on: Staphylococcus aureus 1756; experiment: as above; type: cell-based; details: Staphylococcus aureus 1756; 37° C., about 20 hours, about 10^4 colony-forming particles; read-out: MIC values
Protocol: as §1, §2, §3, §4

[10] = tested on: Staphylococcus aureus FK 422; experiment: as above; type: cell-based; details: FK422; Staphylococcus aureus FK 422; 37° C., about 20 hours, about 10^4 colony-forming particles; read-out: MIC values
Protocol: as §1, §2, §3, §4

[11] = Solubility in water; type: physicochemical; details: mesylate salt

| MIC [1] [µg/mL] | MIC [2] [µg/mL] | MIC [3] [µg/mL] | MIC [4] [µg/mL] | MIC [5] [µg/mL] | MIC [6] [µg/mL] | MIC [7] [µg/mL] | MIC [8] [µg/mL] | MIC [9] [µg/mL] | MIC [10] [µg/mL] | solubility in water [11] | SMILES |
| --- | --- | --- | --- | --- | --- | --- | --- | --- | --- | --- | --- |
| 2 (≈ 5.16 µM) | 2 (≈ 5.16 µM) | 0.125 (≈ 0.323 µM) | 0.5 (≈ 1.29 µM) | 16 (≈ 41.3 µM) | 1 (≈ 2.58 µM) | 64 (≈ 165 µM) | 0.125 (≈ 0.323 µM) | 0.125 (≈ 0.323 µM) | 0.125 (≈ 0.323 µM) | – | CN1CCOC2CN(c3cc4c(cc3F)c(=O)c(C(=O)O)cn4C3CC3)CC21 (stereo not shown) [Example 10, 1-cyclopropyl-6-fluoro-1,4-dihydro-7-(5-methyl-2-oxa-5,8-diazabicyclo[4.3.0]non-8-yl)-4-oxo-3-quinolinecarboxylic acid] |
| 0.125 (≈ 0.31 µM) | 0.25 (≈ 0.62 µM) | 0.06 (≈ 0.149 µM) | 0.125 (≈ 0.31 µM) | 1 (≈ 2.48 µM) | 0.03 (≈ 0.0744 µM) | 2 (≈ 4.96 µM) | 0.06 (≈ 0.149 µM) | 0.06 (≈ 0.149 µM) | 0.06 (≈ 0.149 µM) | – | CN1CCCC2CN(c3c(F)cc4c(=O)c(C(=O)O)cn(C5CC5)c4c3F)CC21 (stereo not shown) [Example 13, 1-cyclopropyl-6,8-difluoro-1,4-dihydro-7-(2-methyl-2,8-diazabicyclo[4.3.0]non-8-yl)-4-oxo-3-quinolinecarboxylic acid] |
| 0.25 (≈ 0.649 µM) | 0.5 (≈ 1.3 µM) | 0.06 (≈ 0.156 µM) | 0.25 (≈ 0.649 µM) | 4 (≈ 10.4 µM) | 0.5 (≈ 1.3 µM) | 4 (≈ 10.4 µM) | 0.25 (≈ 0.649 µM) | 0.25 (≈ 0.649 µM) | 0.25 (≈ 0.649 µM) | – | CN1CCCC2CN(c3cc4c(cc3F)c(=O)c(C(=O)O)cn4C3CC3)CC21 (stereo not shown) [Example 14, 1-cyclopropyl-6-fluoro-1,4-dihydro-7-(2-methyl-2,8-diazabicyclo[4.3.0]non-8-yl)-4-oxo-3-quinolinecarboxylic acid] |
| 0.03 (≈ 0.077 µM) | – | ≤ 0.015 | 0.03 (≈ 0.077 µM) | 0.5 (≈ 1.28 µM) | 0.03 (≈ 0.077 µM) | 1 (≈ 2.57 µM) | 0.03 (≈ 0.077 µM) | 0.03 (≈ 0.077 µM) | 0.03 (≈ 0.077 µM) | – | O=C(O)c1cn(C2CC2)c2c(F)c(N3CC4CCCNC4C3)c(F)cc2c1=O (stereo not shown) [Example 15, 1-cyclopropyl-7-(2,8-diazabicyclo[4.3.0]non-8-yl)-6,8-difluoro-1,4-dihydro-4-oxo-3-quinolinecarboxylic acid] |
| 0.5 (≈ 1.4 µM) | 0.5 (≈ 1.4 µM) | 0.06 (≈ 0.168 µM) | 0.06 (≈ 0.168 µM) | 4 (≈ 11.2 µM) | 0.06 (≈ 0.168 µM) | 32 (≈ 89.5 µM) | 0.125 (≈ 0.35 µM) | 0.125 (≈ 0.35 µM) | 0.125 (≈ 0.35 µM) | – | O=C(O)c1cn(C2CC2)c2cc(N3CC4CCNC4C3)c(F)cc2c1=O (stereo not shown) [Example 16, 1-cyclopropyl-7-(2,7-diazabicyclo[3.3.0]oct-7-yl)-6-fluoro-1,4-dihydro-4-oxo-3-quinolinecarboxylic acid] |
| 1 (≈ 2.69 µM) | 2 (≈ 5.38 µM) | 0.125 (≈ 0.337 µM) | 0.5 (≈ 1.35 µM) | 8 (≈ 21.5 µM) | 0.5 (≈ 1.35 µM) | 8 (≈ 21.5 µM) | 0.5 (≈ 1.35 µM) | 0.5 (≈ 1.35 µM) | 0.5 (≈ 1.35 µM) | – | CN1CCC2CN(c3cc4c(cc3F)c(=O)c(C(=O)O)cn4C3CC3)CC21 (stereo not shown) [Example 17, 1-cyclopropyl-6-fluoro-1,4-dihydro-7-(2-methyl-2,7-diazabicyclo[3.3.0]oct-7-yl)-4-oxo-3-quinolinecarboxylic acid] |
| 0.25 (≈ 0.642 µM) | 0.5 (≈ 1.28 µM) | 0.03 (≈ 0.077 µM) | 0.06 (≈ 0.154 µM) | 1 (≈ 2.57 µM) | 0.06 (≈ 0.154 µM) | 4 (≈ 10.3 µM) | 0.125 (≈ 0.321 µM) | 0.125 (≈ 0.321 µM) | 0.125 (≈ 0.321 µM) | – | CN1CCC2CN(c3c(F)cc4c(=O)c(C(=O)O)cn(C5CC5)c4c3F)CC21 (stereo not shown) [Example 18, 1-cyclopropyl-6,8-difluoro-1,4-dihydro-7-(2-methyl-2,7-diazabicyclo[3.3.0]oct-7-yl)-4-oxo-3-quinolinecarboxylic acid] |
| – | – | – | – | – | – | – | – | – | – | readily soluble in water | CS(=O)(=O)O.O=C(O)c1cn(C2CC2)c2c(F)c(N3CC4CCCNC4C3)c(F)cc2c1=O (stereo not shown) [Example 43A, 1-cyclopropyl-7-(2,8-diazabicyclo[4.3.0]non-8-yl)-6,8-difluoro-1,4-dihydro-4-oxo-3-quinolinecarboxylic acid mesylate] |
